Values of other authors as cited in patent US20250186494A1, “CAR-T THERAPIES TARGETED VIA COVALENTLY BONDED ADAPTERS” (THE SCRIPPS RESEARCH INSTITUTE, priority 2023, published 2025).

Molecular target: PSMA (Homo sapiens, UniProt Q04609)
Conditions: already known targeting moiety

Sequence of PSMA (Q04609 whole entry): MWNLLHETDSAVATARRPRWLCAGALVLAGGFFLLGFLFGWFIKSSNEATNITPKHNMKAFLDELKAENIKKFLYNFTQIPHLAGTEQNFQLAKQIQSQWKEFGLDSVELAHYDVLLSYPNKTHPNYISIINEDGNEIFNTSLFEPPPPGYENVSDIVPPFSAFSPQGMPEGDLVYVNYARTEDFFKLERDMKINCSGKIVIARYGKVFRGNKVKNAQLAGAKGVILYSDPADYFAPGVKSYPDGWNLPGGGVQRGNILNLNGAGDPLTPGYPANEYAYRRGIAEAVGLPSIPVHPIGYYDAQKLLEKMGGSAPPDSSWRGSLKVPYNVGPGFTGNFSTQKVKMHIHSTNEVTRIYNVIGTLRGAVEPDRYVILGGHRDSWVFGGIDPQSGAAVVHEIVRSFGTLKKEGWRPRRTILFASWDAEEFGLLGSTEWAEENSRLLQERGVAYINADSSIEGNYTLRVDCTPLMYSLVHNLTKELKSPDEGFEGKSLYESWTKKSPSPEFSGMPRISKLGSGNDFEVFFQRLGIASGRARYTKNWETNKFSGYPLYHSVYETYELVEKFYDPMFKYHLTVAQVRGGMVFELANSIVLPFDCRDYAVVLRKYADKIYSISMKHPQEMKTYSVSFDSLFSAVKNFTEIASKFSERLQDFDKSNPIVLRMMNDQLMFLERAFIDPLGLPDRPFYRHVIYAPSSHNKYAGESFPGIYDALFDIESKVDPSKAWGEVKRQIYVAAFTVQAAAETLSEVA

## O=C(O)CCC(NC(=O)NC(CCC(=O)O)C(=O)O)C(=O)O (stereo not shown) [DUPA, 2-[3-(1,3-dicarboxypropyl)ureido]pentanedioic acid]
  affinity for PSMA: nM affinity
